Assay results as given in patent EP1916248A1, “Furanone derivatives as cysteine protease inhibitors” (MEDIVIR AB, priority 2006, dated 2008).

Experiments:
human cathepsin L = human cathepsin L (Homo sapiens, UniProt P07711); test: Cathepsin L Ki determination (fluorescent substrate H-D-Val-Leu-Lys-AMC); assay type: biochemical; settings: pH5.5
Protocol: The procedure above with the following amendments is used for the determination of Ki for cathepsin L.
The enzyme is commercially available human cathepsin L (for example Calbiochem). The substrate is H-D-Val-Leu-Lys-AMC available from Bachem. The assay buffer is 100 mM sodium acetate 1 mM EDTA, pH5.5) The DMSO stock (10 mM in 100%DMSO) is diluted to 10% in assay buffer. Enzyme is prepared at 5 nM concentration in assay buffer plus 1 mM dithiothreitol just before use. 2 ul of 10 mM inhibitor made up in 100% DMSO is dispensed into row A. 10 ul of 50 uM substrate (=1/200 dilution of 10 mM stock in DMSO, diluted in assay buffer)
Potential inhibitors are screened using the above assay with variable concentrations of test compound. Reactions were initiated by addition of enzyme to buffered solutions of substrate and inhibitor. Ki values were calculated according to equation 1 v0 = (VS)/(KM (1 + (I)/(Ki)) + S) [formula] where v0 is the velocity of the reaction, V is the maximal velocity, S is the concentration of substrate with Michaelis constant of KM, and / is the concentration of inhibitor.
Representative compounds of the invention were assayed for cathepsin K potency and selectivity in the assays above. Note that the cathepsin L and S data is in micromolar, whereas the compounds are so potent against cathepsin K that the results are presented in nanomolar.

human cathepsin S = target: T1, human cathepsin S (Homo sapiens, UniProt P25774); test: Cathepsin S Ki determination (fluorescent substrate boc-Val-Leu-Lys-AMC); assay type: biochemical; settings: baculovirus-expressed human cathepsin S, pH 6.5
T1 construct: made in house
Protocol: The assay uses baculovirus-expressed human cathepsin S and the boc-Val-Leu-Lys-AMC fluorescent substrate available from Bachem in a 384 well plate format, in which 7 test compounds can be tested in parallel with a positive control comprising a known cathepsin S inhibitor comparator.
280 ul/well of 12.5% DMSO are added to rows B - H of two columns of a 96 deep well polypropylene plate. 70 ul/well of substrate is added to row A. 2 x 250 ul/well of assay buffer (100 mM Na phosphate, 100 mM NaCl, pH 6.5) is added to row A, mixed, and double diluted down the plate to row H.
100 ul/well of assay buffer is added to columns 2-5 and 7-12 of 4 rows of a 96 well V bottom polypropylene plate. 200 ul/well of assay buffer is added to columns 1 and 6.
2 ul of each 10 mM test compound is added to a separate well on row A, columns 1-10. Add 90 ul assay buffer containing 1 mM DTT and 2 nM cathepsin S to each well of rows B-H and 180 ul to row A. Mix row A using a multichannel pipette and double dilute to row G. Mix row H and read in the fluorescent spectrophotometer.
The second test compound is added to column 6 of the top row, the third to column 1 of the second row etc. Add 1 ul of comparator to column 6 of the bottom row. […]
Using the a distributor such as a Multidrop 384, add 30 ul/well to all wells of the assay plate and read in fluorescent spectrophotometer such as an Ascent. […]

[1] = Permeability, transport through Caco-2 cell monolayers; settings: human
cathepsin K = target: T2, cathepsin K (Homo sapiens, UniProt P43235); test: Determination of cathepsin K proteolytic catalytic activity (Ki, fluorogenic peptide substrate); assay type: biochemical; settings: human recombinant enzyme
T2 construct: made in house; host or cells: not fixed: E coli, Pichia or Baculovirus systems named as options
T2 sequence (P43235 115-329): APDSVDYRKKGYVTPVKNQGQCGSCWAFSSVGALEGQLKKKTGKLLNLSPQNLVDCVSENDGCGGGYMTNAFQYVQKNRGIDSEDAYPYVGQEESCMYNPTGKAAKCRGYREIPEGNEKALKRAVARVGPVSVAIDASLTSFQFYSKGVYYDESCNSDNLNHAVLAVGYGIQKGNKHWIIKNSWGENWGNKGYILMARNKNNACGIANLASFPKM
Protocol: Convenient assays for cathepsin K are carried out using human recombinant enzyme, such as that described in PDB.
The recombinant cathepsin K can be expressed in a variety of commercially available expression systems including E coli, Pichia and Baculovirus systems. The purified enzyme is activated by removal of the prosequence by conventional methods.
The enzyme concentration used was 5 nM. The stock substrate solution was prepared at 10 mM in DMSO. […] The total DMSO concentration in the assay was kept below 3%. All assays were conducted at ambient temperature. Product fluorescence (excitation at 390 nm, emission at 460 nm) was monitored with a Labsystems Fluoroskan Ascent fluorescent plate reader.
Potential inhibitors are screened using the above assay with variable concentrations of test compound. Reactions were initiated by addition of enzyme to buffered solutions of substrate and inhibitor.

[2] = reference compounds (markers) of the permeability assay; cited from earlier work

Chain of human cathepsin L (P07711 114-333): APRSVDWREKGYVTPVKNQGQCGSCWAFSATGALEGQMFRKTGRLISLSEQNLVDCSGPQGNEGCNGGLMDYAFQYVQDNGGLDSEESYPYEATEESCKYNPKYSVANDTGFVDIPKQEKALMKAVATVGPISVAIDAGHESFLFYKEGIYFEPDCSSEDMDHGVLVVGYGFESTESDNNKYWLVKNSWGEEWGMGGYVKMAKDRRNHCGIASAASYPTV
T1 sequence (P25774 115-331): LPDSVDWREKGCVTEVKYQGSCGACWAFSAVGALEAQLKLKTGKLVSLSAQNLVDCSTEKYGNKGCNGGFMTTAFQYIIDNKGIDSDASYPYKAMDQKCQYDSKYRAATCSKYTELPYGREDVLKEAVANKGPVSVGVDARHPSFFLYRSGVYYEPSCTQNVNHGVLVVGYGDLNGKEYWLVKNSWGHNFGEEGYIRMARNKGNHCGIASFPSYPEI

SMILES	Ki (human cathepsin L) [nM]	Ki (human cathepsin S) [nM]	Papp at 120 min, 10 uM [1] [×10⁻⁶ cm/s]	% absorption in man [2] [%]	other results
CCC1OCC(=O)C1NC(=O)C1(NC(=O)c2ccc(-c3csc(N4CCN(C)CC4)n3)cc2)CCCCC1 (stereo not shown) [Example 2, N-[1-(2-Ethyl-4-oxo-tetrahydro-furan-3-ylcarbamoyl)-cyclohexyl]-4-[2-(4-methylpiperazin-1-yl)-thiazol-4-yl]-benzamide]	120000	770000	36	–	–
CCC1OCC(=O)C1NC(=O)C(CC(C)C)NC(=O)c1ccc(-c2csc(N3CCN(C)CC3)n2)cc1 (stereo not shown) [Example 3, N-[1-(2-Ethyl-4-oxo-tetrahydro-furan-3-ylcarbamoyl)-3-methyl-butyl]-4-[2-(4-methylpiperazin-1-yl)-thiazol-4-yl]-benzamide]	500	1800	46	–	Ki (cathepsin K): 1 nM
OC[C@@H](O)[C@@H](O)[C@H](O)[C@H](O)CO [Mannitol]	–	–	–	16	–
CN(Cc1cnc2nc(N)nc(N)c2n1)c1ccc(C(=O)N[C@@H](CCC(=O)O)C(=O)O)cc1 [Methotrexate]	–	–	–	20	–
CC(C)C[C@H](NC(=O)c1ccc(N2CCN(C)CC2)cc1)C(=O)N[C@H]1C(=O)CO[C@@H]1C [Prior art, reference compound]	–	–	–	–	Papp at 10 µM [1]: 1 ×10⁻⁶ cm/s
